How the values were obtained:
Mitra Avidin-Agarose = target: T1, Mitra Avidin-Agarose (Gallus gallus, UniProt P02701); assay: Adsorption of biotin-trimer to avidin-agarose column (conditioning), concentration in recirculated fluid by ELISA; type: binding; conditions: 2 mL Mitra Avidin-Agarose; 5 mL of 1 mg/mL biotin-trimer in PBS recirculated at 1 mL/min for 20 minutes; end of recirculation
T1 construct: Mitra
Protocol: Two mL of Mitra Avidin-Agarose was packed into a column housing and was washed with >10 mL of PBS at a flow rate of 1 mL/min (1.6 cm/min). Five mL of a 1 mg/mL solution of biotin-trimer in PBS was recirculated through the avidin-column at 1 mL/min for 20 minutes. At end of the recirculation, a sample (0.5 mL) was drawn from the recirculated solution and analysed by an ELISA technique developed by Mitra Medical Technology AB. The biotin-avidin-agarose-column was washed with phosphate buffer at 1 mL/min for 20 minutes. By determining the concentration of biotin-trimer in the recirculated fluid, the amount of adsorbed biotin-trimer was estimated to about 1.9 mg i.e. 0.95 mg/mL of gel at the end of recirculation.
Biotin-trimer was adsorbed to 2 mL of Mitra Avidin-Agarose. […] If one biotin-trimer is bound per available binding site this would correspond to […] biotin-trimer/mL. As about 0.95 mg biotin-trimer was bound per mL avidin-agarose it can be assumed that the adsorbent was saturated with biotin-trimer.

avidin = avidin (Gallus gallus, UniProt P02701); assay: Assessment of avidin adsorption on a column conditioned with biotin trimer, avidin by ELISA; type: binding
Sequence of avidin (P02701 25-152): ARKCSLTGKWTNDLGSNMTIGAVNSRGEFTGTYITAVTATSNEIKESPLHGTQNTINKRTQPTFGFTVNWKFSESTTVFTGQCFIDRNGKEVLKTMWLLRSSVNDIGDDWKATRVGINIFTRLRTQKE
Protocol: An avidin-agarose column that was conditioned with a biotin trimer (i.e. FIG. 4, compound #2) was primed with phosphate buffer. Following this, 20 mL avidin-solution with 1 mg avidin/mL in PBS was recirculated through a biotin-avidin-agarose-column at 1.0 mL/min (1.6 cm/min). Three volumes of the avidin solution (3×20 mL) were processed and aliquots were drawn from the reservoir before start of the recirculation, then after 2 main and in 5 min intervals. The aliquots were analyzed for the quantity of avidin in them using an ELISA technique developed by Mitra Medical Technology AB. The dotted line represented the theoretically expected if no saturation effect has occurred. The column is saturated after about 40 min (2 vol.) when about 16 mg (80%) of, avidin has been bound. Signs of saturation was seen after about 20 min (1.0 vol.) when the experimental curve begin to deviate from the theoretical curve which occurred when about 10 mg of Avidin had been bound to the column.
After a 40 min recirculation, about 16 mg of avidin was bound, i.e. 8 mg/mL biotin-avidin-agarose. This corresponds to a 1:1 molar ration between the avidin coupled to agarose and the avidin adsorbed to the biotin-trimer. Initial saturation effects were seen after about one recirculated volume. After 2 volumes processed no further avidin was bound.

T1 sequence (P02701 25-152): as above

O=C(CCCCC1OCC2NC(=O)NC21)NCCOCCOCCNC(=O)c1cc(C(=O)NCCOCCOCCNC(=O)CCCCC2OCC3NC(=O)NC32)cc(C(=O)NCCOCCOCCNC(=O)CCCCC2OCC3NC(=O)NC32)c1 (stereo not drawn) [biotin-trimer]
amount of adsorbed biotin-trimer (Mitra Avidin-Agarose): about 1.9 mg
time until signs of saturation (avidin; 1.0 vol.): about 20 min
avidin bound at saturation of the column (avidin; 20 mL of 1 mg avidin/mL in PBS recirculated at 1.0 mL/min, after about 40 min (2 vol.)): about 16 mg
avidin bound when signs of saturation were seen (avidin; after about 20 min (1.0 vol.), experimental curve begins to deviate from theoretical curve): about 10 mg
share of avidin bound at saturation (avidin; after about 40 min (2 vol.)): ~80%
time until the column is saturated (avidin; recirculation at 1.0 mL/min, 2 vol.): about 40 min

From US8124364B2, “Biotin derivatives” (Glycorex Transplantation AB, priority 2000, dated 2012)
